Reference: patent publication US6762046B2, “Polypeptide having β-fructofuranosidase activity” (Kabushiki Kaisha Hayashibara Seibutsu Kagaku Kenkyujo, priority 1996, dated 2004)

B1: polypeptide in Example 2-1: polypeptide with β-fructofuranosidase activity produced by transformant BBF4 (Escherichia coli), containing the amino acid sequence of SEQ ID NO:3 (protein)
chain: MNSGDYKEDYGFAHITRADMLKIPGQQNSPQFKVPQFNASAIKNIDSAKGYDKSGNLIDLDVWDSWPLQNADGTAANYHGYHIVSALAGDPKNSDDTPLHLFYQKVGDTSIDSWKNAGRVFEDMDKFVPNDPYLKYQTQEWSGSATLTKDGQVRLFYTDYSGNPEDGGTGAGNQIISTAQVNLSQPDAATLKVDGVSDHKSVFDGGDGTVYQNIQQFIDEGKWISGDNHTLRDPHYVEDKGHKYLVFEANTGTTDGYQGDQSFNNKAYYGGSDVFFQNEKNKLLQSPKKQIASLANGALGIVELADDYTVKSVMKPLVASNTVADEVERANIFKMNNKWYLFTDSRGSKMTSDGINDKDVYMLGPGGDSLNGPHNPINETGLVLNMNLDPADLTHTYSHCGIPHPEGNNVVLTSYMTNRGFYPEHHSHLRDKLGVNIKGSDTSGGENSSGQGQFP

Test system: polypeptide having β-fructofuranosidase activity
Assay: Action of the polypeptide on saccharide substrates (release of fructose, TLC)
Type: biochemical, Bacillus sp. V230
Details: 2 w/v % substrate, 2 units/g substrate of polypeptide of Example 2-1, 40° C., pH 5.5, 24 hours
Method: An aqueous solution, containing as a substrate sucrose, raffinose, erlose, stachyose, lactosucrose, xylosylfructoside, maltose, cellobiose, lactose, inulin or levan in a concentration of 2 w/v %, was mixed with 2 units/g substrate, d.s.b., of a polypeptide obtained by the method in Example 2-1 and reacted at 40° C. and pH 5.5 for 24 hours.
An adequate amount of each reaction mixture was spotted on “KIESELGEL 60”, an aluminum plate for thin layer chromatography (TLC) commercialized by Merck & Co., Inc., Rahway, USA, developed at ambient temperature using a developing solvent system of 1-butanol, pyridine and water (=7:3:1 by volume), and dried. When the reaction mixture contained fructose, the plate was colored by spraying 0.5 N phosphate solution containing 0.2 w/v % naphthoresorcinol, and heated at 110° C. for 5 min, while the plate was colored by spraying a mixture solution of 20 w/v % sulfuric acid in methanol and heated at 110° C. for 10 min.

Row | Molecule | action on substrate to release fructose
1 | O=C[C@H](O)[C@@H](O)[C@H](O[C@@H]1O[C@H](CO)[C@@H](O)[C@H](O)[C@H]1O)[C@H](O)CO [Cellobiose] | did not substantially act on
2 | OC[C@H]1O[C@@H](O[C@H]2[C@H](O)[C@@H](O)C(O)O[C@@H]2CO)[C@H](O)[C@@H](O)[C@H]1O (some centres unmarked) [Lactose] | did not substantially act on
3 | OC[C@H]1O[C@H](O[C@H]2[C@H](O)[C@@H](O)[C@H](O)O[C@@H]2CO)[C@H](O)[C@@H](O)[C@@H]1O [Maltose] | did not substantially act on
4 | OC[C@H]1O[C@H](OC[C@H]2O[C@H](O[C@]3(CO)O[C@H](CO)[C@@H](O)[C@@H]3O)[C@H](O)[C@@H](O)[C@@H]2O)[C@H](O)[C@@H](O)[C@H]1O [Raffinose] | acted on
5 | OC[C@H]1O[C@@](CO)(O[C@H]2O[C@H](CO)[C@@H](O[C@H]3O[C@H](CO)[C@@H](O)[C@H](O)[C@H]3O)[C@H](O)[C@H]2O)[C@@H](O)[C@@H]1O [erlose] | acted on
6 | OC[C@H]1O[C@@H](O[C@H]2[C@H](O)[C@@H](O)[C@@H](O[C@]3(CO)O[C@H](CO)[C@@H](O)[C@@H]3O)O[C@@H]2CO)[C@H](O)[C@@H](O)[C@H]1O [lactosucrose] | acted on
7 | OC[C@H]1O[C@H](OC[C@H]2O[C@H](OC[C@H]3O[C@H](O[C@]4(CO)O[C@H](CO)[C@@H](O)[C@@H]4O)[C@H](O)[C@@H](O)[C@@H]3O)[C@H](O)[C@@H](O)[C@H]2O)[C@H](O)[C@@H](O)[C@H]1O [stachyose] | acted on
8 | OC[C@H]1O[C@@](CO)(O[C@H]2O[C@H](CO)[C@@H](O)[C@H](O)[C@H]2O)[C@@H](O)[C@@H]1O [sucrose] | acted on
9 | OC[C@H]1O[C@](CO)(O[C@H]2OC[C@@H](O)[C@H](O)[C@H]2O)[C@@H](O)[C@@H]1O [xylosylfructoside] | acted on
10 | inulin | did not substantially act on
11 | levan | did not substantially act on

Test system: not listed separately
Assay: β-fructofuranosidase activity assay (reducing power, Somogyi-Nelson's method)
Type: biochemical
Details: sucrose substrate, 20 mM acetate buffer pH 6.0 with 5 mM calcium chloride, 40° C., 10 min
Method: The activity of the present β-fructofuranosidase was assayed as follows: Sucrose as a substrate was dissolved in 20 mM acetate buffer (pH 6.0) containing 5 mM calcium chloride to give a concentration of 0.1 w/v %. To 5 ml of the solution was added 0.2 ml of a test sample, and the mixture was incubated at 40° C. for 10 min, followed by suspending the enzymatic reaction by the addition of 0.2 ml of the Somogyl copper solution and assaying the reducing power of the reaction mixture by the Somogyi-Nelson's method. As a control, a control solution, which was preheated at 100° C. for 10 min to inactivate the enzyme, was treated similarly as above. Under the above reaction conditions, one unit β-frustofuranosidase activity is defined as the amount of enzyme or polypeptide which gives a reducing power equal to that of 2 μmole of glucose per minute.

Row | Molecule | specific activity (β-fructofuranosidase)
12 | B1 | 205 units/mg protein

Test system: polypeptide having β-fructofuranosidase activity
Assay: Specificity for fructofuranosyl transfer from sucrose to acceptors (TLC)
Type: biochemical, Bacillus sp. V230
Set-up: key: Compared with a reaction mixture of sucrose, “−” means unchanged; +: the size and color of a spot for fructofuranosyl acceptor reduced slightly, and spot for fructofuransyl-transferred product was slightly detected; ++: the size and color of a spot for fructofuranosyl acceptor more reduced and a spot for fructofuransyl transferred product was clearly observed
Details: acceptor and sucrose (donor) in equal weight, 10 w/v %, 2 units/g sucrose of polypeptide of Example 2-1, 40° C., pH 5.5, 24 hours
Method: Using as fructofuranosyl acceptors the monosaccharides, oligosaccharides and alcohols in Table 1, the specificity of the present polypeptide for fructofuranosyl transfer was studied: Any one of the fructofuranosyl acceptors in Table 1 and sucrose as a fructofuranosyl donor were mixed in an equal amount by weight, and the mixture was dissolved in water into a 10 w/v % aqueous solution which was then mixed with 2 units/g sucrose, d.s.b., of a polypeptide obtained by the method in Example 2-1, and reacted at 40° C. and pH 5.5 for 24 hours. Thereafter, the reaction mixture was separated by TCL similarly as above, and the plate was colored by spraying 0.5 N phosphate solution containing 0.2 w/v % naphthoresorcinol, and the plate was heated at 110° C. for 5 min to color and detect fructofuranosyl-transferred products.

Row | Molecule | Formation of fructofuranosyl-transferred product
13 | CCCCO [1-Butanol] | −
14 | CCCO [1-Propanol] | −
15 | CCC(C)O (centres unmarked) [2-Butanol] | −
16 | CC(C)O [2-Propanol] | −
17 | O=C[C@H](O)[C@@H](O)[C@H](O[C@@H]1O[C@H](CO)[C@@H](O)[C@H](O)[C@H]1O)[C@H](O)CO [Cellobiose] | ++
18 | O=C(CO)[C@@H](O)[C@H](O)[C@H](O)CO [D-Fructose] | +
19 | O=C[C@H](O)[C@@H](O)[C@@H](O)[C@H](O)CO [D-Galactose] | ++
20 | O=C[C@@H](O)[C@@H](O)[C@H](O)[C@H](O)CO [D-Mannose] | +
21 | OC[C@@H](O)[C@@H](O)[C@H](O)[C@@H](O)CO [D-Sorbitol] | ++
22 | OC[C@@H](O)[C@H](O)[C@@H](O)CO [D-Xylitol] | ++
23 | O=C[C@H](O)[C@@H](O)[C@H](O)CO [D-Xylose] | ++
24 | CCO [Ethanol] | +
25 | OCCO [Ethylene glycol] | ++
26 | OCC(O)CO [Glycerol] | ++
27 | OC[C@H]1O[C@H](OC[C@H]2OC(O)[C@H](O)[C@@H](O)[C@@H]2O)[C@H](O)[C@@H](O)[C@@H]1O (some centres unmarked) [Isomaltose] | ++
28 | OC[C@H]1O[C@H](O[C@H]2C(O)O[C@H](CO)[C@@H](O)[C@@H]2O)[C@H](O)[C@@H](O)[C@@H]1O (some centres unmarked) [Kojibiose] | +

Row | Molecule | Formation of fructofuranosyl-transferred product
29 | O=C[C@H](O)[C@@H](O)[C@@H](O)CO [L-Arabinose] | +
30 | C[C@H](O)[C@H](O)[C@@H](O)[C@@H](O)C=O [L-Rhamnose] | +
31 | O=C(CO)[C@@H](O)[C@H](O)[C@@H](O)CO [L-Sorbose] | +
32 | OC[C@H]1O[C@@H](O[C@H]2[C@H](O)[C@@H](O)C(O)O[C@@H]2CO)[C@H](O)[C@@H](O)[C@H]1O (some centres unmarked) [Lactose] | ++
33 | OC[C@@H](O)[C@@H](O[C@H]1O[C@H](CO)[C@@H](O)[C@H](O)[C@H]1O)[C@H](O)[C@@H](O)CO [Maltitol] | ++
34 | OC[C@H]1O[C@H](O[C@H]2[C@H](O)[C@@H](O)[C@H](O)O[C@@H]2CO)[C@H](O)[C@@H](O)[C@@H]1O [Maltose] | ++
35 | OC[C@H]1O[C@H](OCC2O[C@@H](O)[C@H](O)[C@@H](O)[C@@H]2O)[C@H](O)[C@@H](O)[C@H]1O (some centres unmarked) [Melibiose] | ++
36 | CO [Methanol] | +
37 | OC[C@H]1O[C@@H](O[C@H]2O[C@H](CO)[C@@H](O)[C@H](O)[C@H]2O)[C@H](O)[C@@H](O)[C@@H]1O [Neotrehalose] | +
38 | OC[C@H]1O[C@H](OC[C@H]2OC(O)(CO)[C@@H](O)[C@@H]2O)[C@H](O)[C@@H](O)[C@@H]1O (some centres unmarked) [Palatinose] | +
39 | OC[C@H]1O[C@H](OC[C@H]2O[C@H](O[C@H]3[C@H](O)[C@@H](O)C(O)O[C@@H]3CO)[C@H](O)[C@@H](O)[C@@H]2O)[C@H](O)[C@@H](O)[C@@H]1O (some centres unmarked) [Panose] | ++
40 | OC[C@H]1O[C@H](OC[C@H]2O[C@H](O[C@]3(CO)O[C@H](CO)[C@@H](O)[C@@H]3O)[C@H](O)[C@@H](O)[C@@H]2O)[C@H](O)[C@@H](O)[C@H]1O [Raffinose] | +
41 | OC[C@H]1O[C@H](O[C@H]2O[C@H](CO)[C@@H](O)[C@H](O)[C@H]2O)[C@H](O)[C@@H](O)[C@@H]1O [Trehalose] | ++
42 | O=C(CO)[C@@H](O[C@H]1O[C@H](CO)[C@@H](O)[C@H](O)[C@H]1O)[C@H](O)[C@H](O)CO [Turanose] | +
43 | Maltotriose | ++

Test system: not listed separately
Assay: Thermal stability
Type: physicochemical
Details: incubated for 60 min in 50 mM acetate buffer pH 6.0

Row | Molecule | thermal stability (stable up to temperature)
44 | B1 | ≤ 45 °C

Test system: not listed separately
Assay: Optimum temperature
Type: biochemical
Details: in the absence of calcium ion; 10 min, 20 mM acetate buffer pH 6.0

Row | Molecule | optimum temperature
45 | B1 | ~45 °C

Same assay, conditions: in the presence of 5 mM calcium ion; 10 min, 20 mM acetate buffer pH 6.0

Row | Molecule | optimum temperature
46 | B1 | about 50 °C

Test system: not listed separately
Assay: Optimum pH
Type: biochemical
Details: incubated at 40° C. for 10 min in 20 mM buffers

Row | Molecule | optimum pH
47 | B1 | 5.5-6.0
